The target in assay [1] is T1, rBmAChE II (recombinant Bombyx mori type II acetylcholinesterase) (Bombyx mori, UniProt B0FGT2).
T1 construct: gene ace2; predicted N-terminal signal peptide removed, codon-optimized, pPIC9K in Pichia pastoris GS115, secreted; crude culture supernatant; 604 residues
Briefly: Ellman assay inhibition. Format: biochemical. The settings on record: crude enzyme supernatant; substrate acetylthiocholine iodide (ATChI), DTNB, 50 mM phosphate, 37 °C; covalent. An excerpt: Ellman assay inhibition on rBmAChE II (recombinant Bombyx mori type II acetylcholinesterase) | inhibition of rBmAChE II mutants by various pesticides (malathion, methomyl, carbaryl, and carbofuran-3-hydroxy)
In general terms: DTNB colorimetry detects thiols as they appear.

Assay [2] deals with T2, rBmAChE II (recombinant Bombyx mori type II acetylcholinesterase) (Bombyx mori, UniProt B0FGT2, Y398W).
T2 construct: gene ace2
T2 sequence (B0FGT2 entry or part of it Y398W): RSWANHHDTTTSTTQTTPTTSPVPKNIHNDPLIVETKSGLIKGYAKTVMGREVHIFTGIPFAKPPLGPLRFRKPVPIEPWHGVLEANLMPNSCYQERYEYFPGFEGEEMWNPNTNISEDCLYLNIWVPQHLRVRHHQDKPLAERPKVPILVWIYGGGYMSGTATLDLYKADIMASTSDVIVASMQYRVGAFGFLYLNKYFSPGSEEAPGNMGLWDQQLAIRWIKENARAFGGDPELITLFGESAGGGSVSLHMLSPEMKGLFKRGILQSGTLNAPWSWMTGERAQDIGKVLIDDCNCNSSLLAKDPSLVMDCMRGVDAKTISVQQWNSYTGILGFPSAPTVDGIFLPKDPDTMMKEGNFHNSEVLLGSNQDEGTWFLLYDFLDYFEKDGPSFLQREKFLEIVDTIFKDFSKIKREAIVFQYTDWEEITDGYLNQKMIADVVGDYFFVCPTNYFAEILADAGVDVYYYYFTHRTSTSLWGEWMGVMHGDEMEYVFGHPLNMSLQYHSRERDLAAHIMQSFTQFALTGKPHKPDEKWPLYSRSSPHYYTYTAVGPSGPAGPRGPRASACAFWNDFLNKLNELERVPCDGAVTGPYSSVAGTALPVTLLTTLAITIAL
The conditions noted are these: crude enzyme supernatant, substrate acetylthiocholine iodide (ATChI), DTNB, 50 mM phosphate, 37 °C, covalent.

Assay [3] addresses T3, rBmAChE II (recombinant Bombyx mori type II acetylcholinesterase) (Bombyx mori, UniProt B0FGT2, Y398G).
T3 construct: gene ace2
The conditions noted are these: crude enzyme supernatant; substrate acetylthiocholine iodide (ATChI), DTNB, 50 mM phosphate, 37 °C; covalent.

Assay [4] has as its target T4, rBmAChE II (recombinant Bombyx mori type II acetylcholinesterase) (Bombyx mori, UniProt B0FGT2, Y398F).
T4 construct: gene ace2
The settings on record: crude enzyme supernatant; substrate acetylthiocholine iodide (ATChI), DTNB, 50 mM phosphate, 37 °C; covalent.

Assay [5] concerns the target T1, rBmAChE II (recombinant Bombyx mori type II acetylcholinesterase). It is filed as biochemical. The conditions noted are these: 30 µL (printed 30 mL) of 0.1 mg/mL physostigmine, 10 min preincubation at 37 °C; crude enzyme supernatant; ATChI substrate, DTNB, 50 mM phosphate.

Consider five compounds from article PMC6274772, “Guided Evolution of Recombinant Bombyx mori Acetylcholinesterase II by Homology Modeling to Change Pesticide Sensitivity” (International Journal of Molecular Sciences, 2018).

Read-outs that look alike come from different tables or passages of the source.

T4 sequence (B0FGT2 entry or part of it Y398F): as the sequence (B0FGT2 entry or part of it Y398W) above, with W375F counted along it
T1 sequence (B0FGT2 entry or part of it): as the sequence (B0FGT2 entry or part of it Y398W) above, with W375Y counted along it
T3 sequence (B0FGT2 entry or part of it Y398G): as the sequence (B0FGT2 entry or part of it Y398W) above, with W375G counted along it

As usually defined, the IC50 is the concentration that inhibits the measured activity by half. In the case of `CNC(=O)Oc1cccc2ccccc12` [carbaryl], the IC50 in assay [1] was 33 nM; in assay [2], 16 nM; in assay [3], 56 nM; in assay [4], 21 nM.

In the case of `CNC(=O)Oc1cccc2c1OC(C)(C)C2O` (stereo not drawn) [carbofuran-3-hydroxy], the IC50 is 76 nM in assay [1], 246 nM in assay [2], 193 nM in assay [3] and 43 nM in assay [4].

`CCOC(=O)CC(SP(=S)(OC)OC)C(=O)OCC` (stereo not drawn) [malathion]: the values for the concentration for half-maximal inhibition (IC50) in assay [1], in assay [2] (stated gain) and in assay [4] were 2820 nM, 5430 nM and 1130 nM, respectively.

Take `CNC(=O)ON=C(C)SC` [methomyl]: the IC50 in assay [1] was determined as 750 nM; in assay [2] it was 4380 nM; in assay [4], 470 nM.

As to `CNC(=O)Oc1ccc2c(c1)[C@]1(C)CCN(C)[C@@H]1N2C` [physostigmine], the “Ellman assay, remaining activity” value in assay [5] is “All four enzyme variants could be inhibited by physostigmine”.
